Source: US20050256093A1, “Branched polyamine steroid derivatives” (Leo Pharma, priority 2002, published 2005)
Converted amounts (≈) assume the structure as drawn.

How the values were obtained:
Assay in all cases: agar cup assay MIC
Format in all cases: cell-based
[1] = system: Candida albicans ZA
Text: (§1) In vitro investigations have shown a significant potency of the compounds of the invention against a large number of bacteria including gram-positive and gram-negative strains (Staphyiococci, Streptococci, Corynebacteriae, Mycobacteriae, Proteus, Propionibacterium, Pseudomonas, Neisseriae, E. coli) and fungal strains (Candida and Aspergillus). […] In addition, the studies of post-antibiotic effects point towards a strong bactericidal effect of the compounds of the invention. […] Minimum Inhibitory Concentrations were estimated using an agar cup assay. Bacterial strains were obtained from the American Type Culture Collection or from our own collection of clinical isolates. Colonies from fresh overnight culture were resuspended in saline water to 0.5 MacFarland corresponding to 10^8 CFU/ml. 200 ml Mueller Hinton agar (Oxoid) at 48° C. was inoculated at a concentration of 10^6 CFU/ml and poured into square petri dishes (245×245 mm). Holes were made in the inoculated plates and 200 μl of the compounds to be tested were disposed into each hole. A dilution series of compounds contained six dilution between 0.25 and 125 μg/ml. For Streptococci Mueller Hinton agar was supplemented with 5% sheep blood. Plates were appropriately incubated and zone diameters of growth inhibition were measured using an electronic caliper. MICs were estimated using a linear regression curve between the zone diameter of growth inhibition and the log2 of the sample concentration. The microbiological assay set up is in agreement with the European Pharmacopoeia 3rd edition (1997). The inhibition zones are function of the concentration of the compounds used. Known antibiotics including fusidic acid (FA), mupirocin and linezolid were used as reference compounds.

[2] = system: Corynebacterium xerosis FF
Text: as §1

[3] = system: E. coli HA165; conditions: Escherichia coli
Text: as §1

[4] = system: Propionibacterium acnes FN33; conditions: Cutibacterium acnes
Text: as §1

[5] = system: Pseudomonas aeruginosa BA17
Text: as §1

[6] = system: S. aureus CJ200; conditions: Staphylococcus aureus
Text: as §1

[7] = system: S. aureus CJ234F; conditions: Staphylococcus aureus; S. aureus CJ234F (MRSA, Fus. resistant)
Text: as §1

[8] = system: S. aureus CJ234R; conditions: Staphylococcus aureus; S. aureus CJ234R (MRSA, Rifampicin resistant)
Text: as §1

[9] = system: S. aureus CJ247; conditions: Staphylococcus aureus
Text: as §1

[10] = system: S. aureus N6; conditions: Staphylococcus aureus; S. aureus N6 (Fus. resistant)
Text: as §1

[11] = system: S. epidermis CK5; conditions: Staphylococcus epidermidis
Text: as §1

[12] = system: Saccaromyces cervisiae ZZ7; conditions: Saccharomyces cerevisiae
Text: as §1

[13] = system: Streptococcus pyogenes EC88; conditions: agar with 5% sheep blood
Text: as §1

[14] = system: Asbergillus niger ZM35; conditions: Aspergillus niger
Text: as §1

**Q.** With `C[C@H](C(=O)NCCCN(CCCN)CCCN)[C@H]1CC[C@H]2[C@@H]3CC=C4C[C@@H](O)CC[C@]4(C)[C@H]3CC[C@]12C` [Compound 114, 22-N-{3′-[bis(3′-aminopropyl)amino]propyl}-23,24-bisnor-5-cholenic-22-amide] as the compound, how does the MIC [1] read?
**A.** Its MIC is greater than 125 µg/mL.

**Q.** What about the MIC [2] of the same compound?
**A.** Its MIC is 64 µg/mL (≈ 124 µM).

**Q.** What about the MIC [3] of the same compound?
**A.** The MIC was 16 µg/mL (≈ 31 µM).

**Q.** What about the MIC [4] of the same compound?
**A.** Its MIC is 16 µg/mL (≈ 31 µM).

**Q.** What about the MIC [5] of the same compound?
**A.** The MIC was greater than 125 µg/mL.

**Q.** What about the MIC [6] of the same compound?
**A.** Its MIC is 16 µg/mL (≈ 31 µM).

**Q.** What about the MIC [7] of the same compound?
**A.** Its MIC is 16 µg/mL (≈ 31 µM).

**Q.** What about the MIC [8] of the same compound?
**A.** Its MIC is 16 µg/mL (≈ 31 µM).

**Q.** And the MIC [9]?
**A.** The MIC was 16 µg/mL (≈ 31 µM).

**Q.** What about the MIC [10] of the same compound?
**A.** The MIC was 16 µg/mL (≈ 31 µM).

**Q.** What about the MIC [11] of the same compound?
**A.** The MIC was 16 µg/mL (≈ 31 µM).

**Q.** What about the MIC [12] of the same compound?
**A.** The MIC was 64 µg/mL (≈ 124 µM).

**Q.** What about the MIC [13] of the same compound?
**A.** The MIC was 64 µg/mL (≈ 124 µM).

**Q.** How did the MIC [14] turn out when `CC(=O)O[C@H]1C[C@@]2(C)C(C[C@@H](O)C3[C@@]4(C)CC[C@@H](OC(C)=O)[C@@H](C)C4CC[C@@]32C)[C@@H]1[C@H](CCCC(C)C)C(=O)NCCCN(CCCN)CCCN` (stereo partly shown) [Compound 115] was run?
**A.** Its MIC is 125 µg/mL (≈ 171 µM).

**Q.** What about the MIC [1] of the same compound?
**A.** The MIC was 16 µg/mL (≈ 21.8 µM).

**Q.** What about the MIC [2] of the same compound?
**A.** Its MIC is 64 µg/mL (≈ 87.3 µM).

**Q.** And the MIC [3]?
**A.** The MIC was 16 µg/mL (≈ 21.8 µM).

**Q.** What about the MIC [4] of the same compound?
**A.** Its MIC is 4 µg/mL (≈ 5.46 µM).

**Q.** What about the MIC [5] of the same compound?
**A.** Its MIC is 16 µg/mL (≈ 21.8 µM).

**Q.** And the MIC [6]?
**A.** The MIC was 4 µg/mL (≈ 5.46 µM).

**Q.** What about the MIC [8] of the same compound?
**A.** The MIC was 4 µg/mL (≈ 5.46 µM).

**Q.** And the MIC [11]?
**A.** The MIC was 4 µg/mL (≈ 5.46 µM).

**Q.** And the MIC [12]?
**A.** Its MIC is 16 µg/mL (≈ 21.8 µM).

**Q.** What about the MIC [13] of the same compound?
**A.** Its MIC is 4 µg/mL (≈ 5.46 µM).

**Q.** Which results are given for `CC(=O)O[C@H]1C[C@@]2(C)C(CCC3[C@@]4(C)CC[C@@H](OS(=O)(=O)O)[C@@H](C)C4CC[C@@]32C)[C@@H]1[C@H](CCCC(C)C)C(=O)NCCCN(CCCN)CCCN` (stereo partly shown) [Compound 116]?
**A.** MIC [14]: 64 µg/mL (≈ 84.8 µM); MIC [1]: 64 µg/mL (≈ 84.8 µM); MIC [2]: 4 µg/mL (≈ 5.3 µM); MIC [3]: 64 µg/mL (≈ 84.8 µM); MIC [4]: 16 µg/mL (≈ 21.2 µM); MIC [5]: 125 µg/mL (≈ 166 µM); MIC [6]: 4 µg/mL (≈ 5.3 µM); MIC [7]: 4 µg/mL (≈ 5.3 µM); MIC [8]: 4 µg/mL (≈ 5.3 µM); MIC [11]: 4 µg/mL (≈ 5.3 µM); MIC [12]: 16 µg/mL (≈ 21.2 µM); MIC [13]: 16 µg/mL (≈ 21.2 µM)

**Q.** Which results are given for `CC(C)CCCC(C(=O)NCCCN(CCCN)CCCN)[C@H]1CC[C@@]2(C)C1CCC1[C@@]3(C)CC[C@@H](O)[C@@H](C)C3CC[C@@]12C` (stereo partly shown) [Compound 117, 21-N-{3′-[bis(3′-aminopropyl)amino]propyl}-1-11-desoxy-16-desacetoxy-17S,20,24,25-tetrahydrofusid-21-amide]?
**A.** MIC [2]: 0.25 µg/mL (≈ 0.405 µM); MIC [6]: 1 µg/mL (≈ 1.62 µM); MIC [7]: 1 µg/mL (≈ 1.62 µM); MIC [8]: 1 µg/mL (≈ 1.62 µM); MIC [9]: 1 µg/mL (≈ 1.62 µM); MIC [10]: 1 µg/mL (≈ 1.62 µM); MIC [11]: 1 µg/mL (≈ 1.62 µM)

**Q.** Which results are given for `CC(=O)O[C@H]1C[C@@]2(C)[C@@H](C[C@@H](O)[C@H]3[C@@]4(C)CC[C@@H](O)[C@@H](C)[C@@H]4CC[C@@]32C)/C1=C(\CCC=C(C)C)C(=O)O` [FA, fusidic acid, reference compound]?
**A.** MIC [14]: > 64 µg/mL; MIC [1]: > 64 µg/mL; MIC [2]: 0.1 µg/mL (≈ 0.194 µM); MIC [3]: > 64 µg/mL; MIC [4]: 0.2 µg/mL (≈ 0.387 µM); MIC [5]: > 64 µg/mL; MIC [6]: 0.02 µg/mL (≈ 0.0387 µM); MIC [7]: 16 µg/mL (≈ 31 µM); MIC [8]: 0.02 µg/mL (≈ 0.0387 µM); MIC [9]: 0.02 µg/mL (≈ 0.0387 µM); MIC [10]: 16 µg/mL (≈ 31 µM); MIC [11]: 0.02 µg/mL (≈ 0.0387 µM); MIC [12]: > 64 µg/mL; MIC [13]: 16 µg/mL (≈ 31 µM)

**Q.** What does the source list for `CC(=O)NC[C@H]1CN(c2ccc(N3CCOCC3)c(F)c2)C(=O)O1` [Linezolid, linezolid, reference compound]?
**A.** MIC [4]: 1 µg/mL (≈ 2.96 µM); MIC [6]: 4 µg/mL (≈ 11.9 µM); MIC [7]: 1 µg/mL (≈ 2.96 µM); MIC [8]: 16 µg/mL (≈ 47.4 µM); MIC [9]: 1 µg/mL (≈ 2.96 µM); MIC [11]: 0.25 µg/mL (≈ 0.741 µM); MIC [13]: 4 µg/mL (≈ 11.9 µM)

**Q.** Which MIC [6] does the source give for `C/C(=C\C(=O)OCCCCCCCCC(=O)O)C[C@@H]1OC[C@H](C[C@@H]2O[C@H]2[C@@H](C)[C@H](C)O)[C@@H](O)[C@H]1O` [Mupirocin, mupirocin, reference compound] here?
**A.** The MIC was 1 µg/mL (≈ 2 µM).

**Q.** And the MIC [7]?
**A.** Its MIC is 0.5 µg/mL (≈ 0.999 µM).

**Q.** And the MIC [8]?
**A.** The MIC was 1 µg/mL (≈ 2 µM).

**Q.** And the MIC [9]?
**A.** The MIC was 0.5 µg/mL (≈ 0.999 µM).

**Q.** And the MIC [11]?
**A.** Its MIC is 0.04 µg/mL (≈ 0.0799 µM).

**Q.** And the MIC [13]?
**A.** The MIC was 1 µg/mL (≈ 2 µM).
